Calls of active or inactive are those of the source. The calls are words filed in the database; no cut-off is given here.
Tests used:
[1] = system: MIA PaCa-2; experiment: Preferential cytotoxicity against human MIA PaCa-2 cells in nutrient-deprived medium measured after 24 hrs by WST-8 cell counting analysis; assay type: functional
[2] = system: PANC-1; experiment: Preferential cytotoxicity against human PANC-1 cells in nutrient-deprived medium measured after 24 hrs by WST-8 cell counting analysis; assay type: functional
[3] = system: MIA PaCa-2; experiment: Antitumor activity against human MIA PaCa-2 cells xenografted in athymic BALB/c-nu mouse assessed as fold change in N-acetylneuraminicacid level in tumor at 10 mg/kg/day, ip administered five times per week for 4 weeks by LC-MS analysis; assay type: functional
[4] = system: MIA PaCa-2; experiment: Antitumor activity against human MIA PaCa-2 cells xenografted in athymic BALB/c-nu mouse assessed as fold change in phenyl alanine level in tumor at 10 mg/kg/day, ip administered five times per week for 4 weeks by LC-MS analysis; assay type: functional
[5] = system: MIA PaCa-2; experiment: Preferential cytotoxicity against human MIA PaCa-2 cells in nutrient-deprived medium assessed as alteration in cell morphology by measuring cell rounding at 5 uM measured after 24 hrs by acridine orange and ethidium bromide dual fluorescent staining based imaging analysis; assay type: functional
[6] = system: MIA PaCa-2; experiment: Inhibition of autophagy in human MIA PaCa-2 cells in nutrient-deprived medium assessed as downregulation of LC3-II protein expression measured after 6 hrs by Western blot analysis; assay type: functional, cell-based; details: dose 5-20 µM
[7] = system: PANC-1; experiment: Antimetastatic activity in human PANC-1 cells in nutrient-rich medium assessed as open wound area at 20 uM measured every 15 mins for 24 hrs by live cell imaging analysis (reference value: 16%); assay type: functional
[8] = system: MIA PaCa-2; experiment: Antimetastatic activity in human MIA PaCa-2 cells in DMEM media assessed as inhibition of colony formation at 20 uM incubated for 24 hrs followed by replacement with fresh medium and measured after 10 days by crystal violet staining-based assay relative to control; assay type: functional
[9] = system: MIA PaCa-2; experiment: Antitumor activity against human MIA PaCa-2 cells xenografted in athymic BALB/c-nu mouse assessed as tumor wet weight at 10 mg/kg/day, ip administered five times per week for 4 weeks (reference value: 368 mg); assay type: functional
[10] = system: MIA PaCa-2; experiment: Antitumor activity against human MIA PaCa-2 cells xenografted in athymic BALB/c-nu mouse assessed as fold change in 4-(methylthio)-2-oxobutyricacid level in tumor at 10 mg/kg/day, ip administered five times per week for 4 weeks by LC-MS analysis; assay type: functional
[11] = system: MIA PaCa-2; experiment: Antitumor activity against human MIA PaCa-2 cells xenografted in athymic BALB/c-nu mouse assessed as fold change in cytidine 5'-monophosphate level in tumor at 10 mg/kg/day, ip administered five times per week for 4 weeks by LC-MS analysis; assay type: functional
[12] = system: MIA PaCa-2; experiment: Antitumor activity against human MIA PaCa-2 cells xenografted in athymic BALB/c-nu mouse assessed as fold change in 2'-deoxycytidine level in tumor at 10 mg/kg/day, ip administered five times per week for 4 weeks by LC-MS analysis; assay type: functional
[13] = system: MIA PaCa-2; experiment: Antitumor activity against human MIA PaCa-2 cells xenografted in athymic BALB/c-nu mouse assessed as fold change in uracil level in tumor at 10 mg/kg/day, ip administered five times per week for 4 weeks by LC-MS analysis; assay type: functional
[14] = system: PANC-1; experiment: Preferential cytotoxicity against human PANC-1 cells in nutrient-deprived medium assessed as alteration in cell morphology by measuring cell blebbing at 5 uM measured after 24 hrs by acridine orange and ethidium bromide dual fluorescent staining based imaging analysis; assay type: functional
[15] = system: MIA PaCa-2; experiment: Preferential cytotoxicity against human MIA PaCa-2 cells in nutrient-deprived medium assessed as alteration in cell morphology by measuring cell blebbing at 5 uM measured after 24 hrs by acridine orange and ethidium bromide dual fluorescent staining based imaging analysis; assay type: functional
[16] = system: PANC-1; experiment: Preferential cytotoxicity against human PANC-1 cells in nutrient-deprived medium assessed as alteration in cell morphology by measuring leakage of cell components at 5 uM measured after 24 hrs by acridine orange and ethidium bromide dual fluorescent staining based imaging analysis; assay type: functional
[17] = system: PANC-1; experiment: Inhibition of Akt/mTOR signaling pathway in human PANC-1 cells in DMEM media assessed as reduction in AKT phosphorylation at S473 residue at 5 to 20 uM measured after 6 hrs by Western blot analysis; assay type: cell-based; details: dose 5-20 µM
[18] = system: MIA PaCa-2; experiment: Antitumor activity against human MIA PaCa-2 cells xenografted in athymic BALB/c-nu mouse assessed as reduction in Akt phosphorylation at S473 residue in tumor at 10 mg/kg/day, ip administered five times per week for 4 weeks by Western blot analysis; assay type: functional, organism-based
[19] = system: MIA PaCa-2; experiment: Antitumor activity against human MIA PaCa-2 cells xenografted in athymic BALB/c-nu mouse assessed as reduction in mTOR phosphorylation at S2481 residue in tumor at 10 mg/kg/day, ip administered five times per week for 4 weeks by Western blot analysis; assay type: functional, organism-based
[20] = system: MIA PaCa-2; experiment: Antitumor activity against human MIA PaCa-2 cells xenografted in athymic BALB/c-nu mouse assessed as fold change in 1-aminocyclopropanecarboxylicacid level in tumor at 10 mg/kg/day, ip administered five times per week for 4 weeks by LC-MS analysis; assay type: functional
[21] = system: MIA PaCa-2; experiment: Antitumor activity against human MIA PaCa-2 cells xenografted in athymic BALB/c-nu mouse assessed as fold change in cytosine level in tumor at 10 mg/kg/day, ip administered five times per week for 4 weeks by LC-MS analysis; assay type: functional
[22] = system: MIA PaCa-2; experiment: Antitumor activity against human MIA PaCa-2 cells xenografted in athymic BALB/c-nu mouse assessed as fold change in D-ribulose5-phosphate level in tumor at 10 mg/kg/day, ip administered five times per week for 4 weeks by LC-MS analysis; assay type: functional
[23] = system: MIA PaCa-2; experiment: Antitumor activity against human MIA PaCa-2 cells xenografted in athymic BALB/c-nu mouse assessed as fold change in 1-aminocyclopropanecarboxylicacid level in tumor at 2 mg/kg/day, ip administered five times per week for 4 weeks by LC-MS analysis; assay type: functional
[24] = system: MIA PaCa-2; experiment: Antitumor activity against human MIA PaCa-2 cells xenografted in athymic BALB/c-nu mouse assessed as fold change in arabinosyl hypoxanthine level in tumor at 2 mg/kg/day, ip administered five times per week for 4 weeks by LC-MS analysis; assay type: functional
[25] = system: MIA PaCa-2; experiment: Antitumor activity against human MIA PaCa-2 cells xenografted in athymic BALB/c-nu mouse assessed as fold change in biotin level in tumor at 2 mg/kg/day, ip administered five times per week for 4 weeks by LC-MS analysis; assay type: functional
[26] = system: MIA PaCa-2; experiment: Antitumor activity against human MIA PaCa-2 cells xenografted in athymic BALB/c-nu mouse assessed as fold change in cytosine level in tumor at 2 mg/kg/day, ip administered five times per week for 4 weeks by LC-MS analysis; assay type: functional
[27] = system: MIA PaCa-2; experiment: Antitumor activity against human MIA PaCa-2 cells xenografted in athymic BALB/c-nu mouse assessed as fold change in leucine level in tumor at 2 mg/kg/day, ip administered five times per week for 4 weeks by LC-MS analysis; assay type: functional
[28] = system: MIA PaCa-2; experiment: Antitumor activity against human MIA PaCa-2 cells xenografted in athymic BALB/c-nu mouse assessed as fold change in sphinganine level in tumor at 2 mg/kg/day, ip administered five times per week for 4 weeks by LC-MS analysis; assay type: functional
[29] = system: MIA PaCa-2; experiment: Antitumor activity against human MIA PaCa-2 cells xenografted in athymic BALB/c-nu mouse assessed as fold change in uracil level in tumor at 2 mg/kg/day, ip administered five times per week for 4 weeks by LC-MS analysis; assay type: functional

For COc1cc(O)c(C(=O)[C@@H]2CC=C(CCC=C(C)C)C[C@H]2c2ccccc2)c(O)c1, the PC50 [1] was 2.9 µM, the PC50 [2] was 3.4 µM and the “fold change (FC)” value [3] was 0.4. The “fold change (FC)” value [4] was 0.43, the Activity [5] was “Active” and the inhibition [6] was “Dose-Dependent Effect”. It also gave an Activity [7] of 36%, an inhibition at 20 µM [8] of 95% and an Activity [9] of 119 mg. For the same compound, the “fold change (FC)” value [10] was 0.41, the “fold change (FC)” value [11] was 0.31 and the “fold change (FC)” value [12] was 0.31. For the same compound, the “fold change (FC)” value [13] was 0.09, the Activity [14] was “Active” and the Activity [15] was “Active”. The Activity [16] was “Active”, the inhibition [17] was “inactive” and the Activity [18] was “Active”. For the same compound, the Activity [19] was “Active”, the “fold change (FC)” value [20] was 0.61 and the “fold change (FC)” value [21] was 0.44. For the same compound, the “fold change (FC)” value [22] was 0.22, the “fold change (FC)” value [23] was 0.8 and the “fold change (FC)” value [24] was 0.46. For the same compound, the “fold change (FC)” value [25] was 0.86, the “fold change (FC)” value [26] was 0.73 and the “fold change (FC)” value [27] was 0.43. The “fold change (FC)” value [28] was 1.87 and the “fold change (FC)” value [29] was 0.29.

— ChEMBL document CHEMBL5321213, “Nicolaioidesin C: An Antiausterity Agent Shows Promising Antitumor Activity in a Pancreatic Cancer Xenograft Mouse Model” (J Nat Prod, 2023)
